This note sets out measurements from publication PMC3723128 (Journal of medicinal chemistry, 2013).

Assay type in all cases: biochemical
The target of assay [1] is T1, maDHFR (Mycobacterium avium, UniProt O30463).
T1 sequence (O30463 1-181): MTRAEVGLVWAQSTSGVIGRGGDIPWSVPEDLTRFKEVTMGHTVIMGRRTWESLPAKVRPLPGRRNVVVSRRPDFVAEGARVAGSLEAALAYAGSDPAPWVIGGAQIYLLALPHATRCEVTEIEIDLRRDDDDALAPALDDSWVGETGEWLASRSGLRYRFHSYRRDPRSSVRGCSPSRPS
The assay is described as follows: Inhibition of maDHFR.

Assay [2] has as its target recombinant pjDHFR (Pneumocystis jirovecii, UniProt Q9UUP5). The assay is described as follows: Inhibition of recombinant pjDHFR.
Assay [3] concerns the target T2, recombinant hDHFR (Homo sapiens, UniProt P00374).
T2 sequence (P00374 1-187): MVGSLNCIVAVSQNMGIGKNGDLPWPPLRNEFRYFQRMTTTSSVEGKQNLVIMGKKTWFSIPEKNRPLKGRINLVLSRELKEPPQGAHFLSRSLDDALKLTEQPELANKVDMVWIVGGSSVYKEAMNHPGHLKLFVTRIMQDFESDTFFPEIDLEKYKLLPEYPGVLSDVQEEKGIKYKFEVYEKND
As to the kind of experiment: Inhibition of recombinant hDHFR. The following applies: compared to unsubstituted phenyl compound 4.

With `CN(c1cnc2nc(N)nc(N)c2c1)c1cccc2ccccc12` [Compound 24, N^6-methyl-N^6-1-naphthylpyrido[2,3-d]pyrimidine-2,4,6-triamine], the rl/ma selectivity ratio in assay [1] (IC50 rlDHFR / IC50 maDHFR) is 10.3.
On to `CN(c1ccccc1)c1cnc2nc(N)nc(N)c2c1` [Compound 16, N^6-methyl-N^6-phenylpyrido[2,3-d]pyrimidine-2,4,6-triamine], for which, in assay [2], the “fold more potent than TMP against pjDHFR” value is “about 50 fold”.
`COc1cc(Nc2cnc3nc(N)nc(N)c3c2)cc(OC)c1OC` [Compound 8, N^6-(3,4,5-trimethoxyphenyl)pyrido[2,3-d]pyrimidine-2,4,6-triamine]: in assay [2] (IC50 hDHFR / IC50 pjDHFR), the h/pj selectivity ratio is on record as 12.7.
`Nc1nc(N)c2cc(Nc3ccc4ccccc4c3)cnc2n1` [Compound 11, N^6-2-naphthylpyrido[2,3-d]pyrimidine-2,4,6-triamine]: the “fold loss in potency against hDHFR” value in assay [3] is on record as 10 fold.
On the same count and under the same terms, the result for `Nc1nc(N)c2cc(Nc3cccc4ccccc34)cnc2n1` [Compound 13, N^6-1-naphthylpyrido[2,3-d]pyrimidine-2,4,6-triamine] reads 10 fold.
As for `COc1cc(N(C)c2cnc3nc(N)nc(N)c3c2)cc(OC)c1OC` [Compound 20, N^6-methyl-N^6-(3,4,5-trimethoxyphenyl)pyrido[2,3-d]pyrimidine-2,4,6-triamine], the “inhibitory potency against maDHFR” value in assay [1] is given as “subnanomolar”.
`CN(c1cc(F)c(F)c(F)c1)c1cnc2nc(N)nc(N)c2c1` [Compound 26, N^6-methyl-N^6-(3,4,5-trifluorophenyl)pyrido[2,3-d]pyrimidine-2,4,6-triamine]: the “fold more selective for pjDHFR than PTX” value in assay [2] is listed as 18 fold. In addition, the “fold difference in potency for pjDHFR made by the N9-Me moiety” value in assay [2] (pairs 16/4 and 26/15, from IC50 values in Table 5) is recorded as around 200 fold.
